Data on two molecules can be found in the NIST ThermoML archive (doi:10.1016/j.tca.2015.06.020).

For the data set the following is noted: Crystal; DTA.

± gives the expanded uncertainty stated by the source.

Take `COc1ccc([N+](=O)[O-])c(-n2ccnn2)c1[N+](=O)[O-]` [1-(3-methoxy-2,6-dinitrophenyl)-1H-1,2,3-triazole]: the Normal melting temperature was found to be 168.96 ± 3 °C. For the molecule `COc1c([N+](=O)[O-])cc(Cn2ccnn2)cc1[N+](=O)[O-]` [1-(4-methoxy-3,5-dinitrobenzyl)-1H-1,2,3-triazole], the Normal melting temperature is 90.13 ± 3 °C.
